Test results reported in US20240116990A1, “Compositions and Methods of Treatment Using CRRL 191” (Mayo Foundation for Medical Education and Research, priority 2022, published 2024).
Bridge positions count the residues as written; N and C are the ends.

Legend:
[1] = physchem; conditions: water
[2] = molecular target: T1, human GC-A (Homo sapiens, UniProt P16066); test: cGMP production over 6 hours in HEK/GCA cells; type: cell-based; conditions: 10^−8 M, FIG. 2
T1 construct: host or cells: HEK293
T1 sequence (P16066 33-1061): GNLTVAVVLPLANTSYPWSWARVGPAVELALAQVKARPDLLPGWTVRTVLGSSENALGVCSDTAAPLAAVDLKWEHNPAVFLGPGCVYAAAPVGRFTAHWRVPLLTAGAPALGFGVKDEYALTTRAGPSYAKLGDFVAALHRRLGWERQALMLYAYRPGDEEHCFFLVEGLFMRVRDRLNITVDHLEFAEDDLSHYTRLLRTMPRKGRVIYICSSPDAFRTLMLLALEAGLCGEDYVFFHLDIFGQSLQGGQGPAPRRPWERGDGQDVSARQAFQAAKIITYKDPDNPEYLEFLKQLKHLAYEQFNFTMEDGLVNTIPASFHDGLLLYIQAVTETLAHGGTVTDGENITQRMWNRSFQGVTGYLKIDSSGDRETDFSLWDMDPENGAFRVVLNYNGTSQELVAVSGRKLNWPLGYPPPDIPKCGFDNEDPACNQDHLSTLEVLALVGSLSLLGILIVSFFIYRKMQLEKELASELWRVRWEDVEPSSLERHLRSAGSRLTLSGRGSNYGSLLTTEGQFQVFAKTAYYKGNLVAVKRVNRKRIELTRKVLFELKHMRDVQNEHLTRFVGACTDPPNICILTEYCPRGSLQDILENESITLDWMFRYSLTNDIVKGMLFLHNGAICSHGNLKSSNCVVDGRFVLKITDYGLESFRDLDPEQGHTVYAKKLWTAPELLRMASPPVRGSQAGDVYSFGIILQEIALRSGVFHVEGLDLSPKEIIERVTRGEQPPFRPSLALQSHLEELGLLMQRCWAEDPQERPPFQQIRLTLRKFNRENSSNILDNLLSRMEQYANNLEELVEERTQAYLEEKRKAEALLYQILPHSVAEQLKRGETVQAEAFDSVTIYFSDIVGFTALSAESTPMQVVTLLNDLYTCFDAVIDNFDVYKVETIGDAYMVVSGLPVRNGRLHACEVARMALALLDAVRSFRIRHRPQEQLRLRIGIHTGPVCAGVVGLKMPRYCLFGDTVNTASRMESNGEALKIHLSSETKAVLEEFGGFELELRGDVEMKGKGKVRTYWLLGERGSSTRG
Method: HEK293 cells stably transfected with human GC-A (cDNA clones from Origene, Rockville, MD) using Lipofectamine (Invitrogen, Grand Island, NY), are developed. Receptor overexpression is verified with immunofluorescence and western blotting. GC-A-transfected HEK293 (HEK/GCA) cells are maintained in Dulbecco's modified Eagle's medium (DMEM) supplemented with 10% fetal bovine serum (FBS), 100 U/ml penicillin, 100 U/ml streptomycin and 250 μg/ml G418.
Two in vitro cGMP assays are performed. Briefly, HEK/GCA cells are seeded in 48-well plates and cultured overnight to 80-90% confluency. The treatment buffer used in all experiments comprises Hank's Balanced Salt Solution (HBSS), 0.1% bovine serum albumin (BSA), 2 mM HEPES, and 0.5 mM 3-isobutyl-1-methylxanthine (IBMX, a non-specific phosphodiesterase inhibitor) (Sigma, St. Louis, MO).
After treatment, all cells are washed with phosphate buffered solution (PBS) once and lysed with 0.1M HCl.

[3] = tested on: Spontaneously Hypertensive Rats (SHR); test: Plasma cGMP in spontaneously hypertensive rats; type: in vivo, rat
Method: (§1) All rat experiments are conducted following the Animal Welfare Act and the protocol is approved by the Mayo Clinic Institutional Animal Care and Use Committee (IACUC). […] Rats are included only if they are deemed healthy by the Institutional Veterinarian Department. Investigators who conduct the in vivo study are not blinded to treatments, but biochemical analysis is performed by a different investigator who is blinded to treatment.
(§2) On the day of the experiment, SHR rats are anesthetized with inactin (120 mg/kg, intraperitoneal injection, Sigma, St. Louis, MO). Rats are then kept on a heating pad at 38° C. to maintain a normal body temperature for the entire study. Vascular and bladder cannulation procedures are conducted. Briefly, a polyethylene-50 (PE-50) tube catheter is placed into one jugular vein for peptide infusion and another PE-50 tube is placed into the carotid artery for blood pressure (BP) monitoring (Sonometrics, London, Ontario, Canada) and blood sampling. After instrumentation, a 15-minute equilibrium period follows, and a 30-minute pre-infusion period is performed to collect baseline urine samples.
(§3) Four blood samples are collected to determine circulating cGMP levels: at baseline, before the end of drug infusion, at the middle of the washout clearance period, and before the end of the washout clearance period. Any blood loss in the rats is replaced with an equal volume of saline. BP is monitored and recorded every 15 minutes beginning after the initiation of peptide infusion. All collected blood are stored at −80° C. until assayed.
For the biochemical analysis, plasma cGMP levels are measured with a cGMP ELISA kit (Enzo Life Sciences, Farmingdale, NY).

[4] = molecular target: T2, extracellular domain of GC-A recombinant protein (Homo sapiens, UniProt P16066); test: GC-A binding by surface plasmon resonance (SPR); conditions: SPR binding curves, FIG. 7
T2 construct: The extracellular domain of GC-A recombinant protein with a C-terminal His-tag (MyBioSource, Inc., San Diego, CA); purchased MyBioSource, Inc., San Diego, CA
T2 sequence (P16066 33-473 limits assumed): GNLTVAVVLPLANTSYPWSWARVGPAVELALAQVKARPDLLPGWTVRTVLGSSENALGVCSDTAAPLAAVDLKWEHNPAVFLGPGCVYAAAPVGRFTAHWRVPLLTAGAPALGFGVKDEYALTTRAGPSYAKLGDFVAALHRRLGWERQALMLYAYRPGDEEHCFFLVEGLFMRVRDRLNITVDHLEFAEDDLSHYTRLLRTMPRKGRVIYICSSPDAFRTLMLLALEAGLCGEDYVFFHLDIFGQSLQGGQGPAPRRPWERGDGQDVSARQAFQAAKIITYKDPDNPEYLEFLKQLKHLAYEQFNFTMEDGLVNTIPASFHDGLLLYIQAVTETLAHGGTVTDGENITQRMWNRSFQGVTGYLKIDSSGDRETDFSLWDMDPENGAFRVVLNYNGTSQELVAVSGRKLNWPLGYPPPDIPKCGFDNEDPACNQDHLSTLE
Method: Surface plasmon resonance (SPR) measurements are performed at 25° C. on a BI-4500 SPR instrument (Biosensing Instrument Inc., Tempe, AZ). The extracellular domain of GC-A recombinant protein with a C-terminal His-tag (MyBioSource, Inc., San Diego, CA) is immobilized onto a Ni-NTA sensor chip (Biosensing Instrument Inc., Tempe, AZ) using 400 μM nickel sulfate in de-iron water as linker, as instructed by the instrument manual. Then, 40 μg/ml of recombinant GC-A is immobilized on the Ni-NTA sensor chip. […] Data are collected as sensorgrams. Binding kinetics are calculated from sensorgrams using the BI-Data Analysis Program (Biosensing Instrument, Tempe, AZ).

[5] = tested on: Spontaneously Hypertensive Rats (SHR); test: Blood pressure in spontaneously hypertensive rats during infusion and washout; type: in vivo, rat; conditions: 100 pmol/kg and 300 pmol/kg doses
Method: as §1, §2, §3

[6] = 100 pmol/kg and 300 pmol/kg doses, FIG. 9B

Substance: H-RALLTAPRSLRRSSCFGHKIDRINHVSNLGCNSFRYRITAREDKQGWA-OH (disulfide 15-31) [CRRL 191]
- solubility [1]: ≥ 1000 µg/mL
- GC-A activation / cGMP production up to about 30 minutes [2]: increases in cGMP production at the same rate
- GC-A activation / cGMP production after 30 minutes ([2]; up to 6 hours): continues to increase up to at least 6 hours
- activating cGMP in plasma compared to ANP [3, 6]: more potent
- duration of plasma cGMP activation after peptide administration compared to ANP [3, 6]: more sustained activation
- plasma cGMP levels ([3]; iv infusion, FIG. 9A): increase
- binding for the GC-A receptor compared to ANP and MANP [4]: greater binding
- lowering systolic blood pressure compared to ANP ([5]; iv infusion, FIG. 8A): more effective at lowering
- lowering diastolic blood pressure compared to ANP ([5]; iv infusion, FIG. 8B): more effective at lowering
- lowering mean arterial blood pressure compared to ANP ([5]; iv infusion, FIG. 8C): more effective at lowering
- duration of blood pressure effect after peptide administration compared to ANP ([5]; washout): more sustained effect over time
